# Patent US20250304576A1 (Cancer Research Technology Limited, priority 2022, published 2025)
# What was measured:
# [1] = biological target: T1, Recombinant IKKβ (Homo sapiens, UniProt O14920); assay: DELFIA IKKβ kinase assay (apparent Ki, Cheng-Prusoff); assay type: biochemical
# T1 construct: purchased Millipore, Dundee, UK
# T1 sequence (O14920 1-756): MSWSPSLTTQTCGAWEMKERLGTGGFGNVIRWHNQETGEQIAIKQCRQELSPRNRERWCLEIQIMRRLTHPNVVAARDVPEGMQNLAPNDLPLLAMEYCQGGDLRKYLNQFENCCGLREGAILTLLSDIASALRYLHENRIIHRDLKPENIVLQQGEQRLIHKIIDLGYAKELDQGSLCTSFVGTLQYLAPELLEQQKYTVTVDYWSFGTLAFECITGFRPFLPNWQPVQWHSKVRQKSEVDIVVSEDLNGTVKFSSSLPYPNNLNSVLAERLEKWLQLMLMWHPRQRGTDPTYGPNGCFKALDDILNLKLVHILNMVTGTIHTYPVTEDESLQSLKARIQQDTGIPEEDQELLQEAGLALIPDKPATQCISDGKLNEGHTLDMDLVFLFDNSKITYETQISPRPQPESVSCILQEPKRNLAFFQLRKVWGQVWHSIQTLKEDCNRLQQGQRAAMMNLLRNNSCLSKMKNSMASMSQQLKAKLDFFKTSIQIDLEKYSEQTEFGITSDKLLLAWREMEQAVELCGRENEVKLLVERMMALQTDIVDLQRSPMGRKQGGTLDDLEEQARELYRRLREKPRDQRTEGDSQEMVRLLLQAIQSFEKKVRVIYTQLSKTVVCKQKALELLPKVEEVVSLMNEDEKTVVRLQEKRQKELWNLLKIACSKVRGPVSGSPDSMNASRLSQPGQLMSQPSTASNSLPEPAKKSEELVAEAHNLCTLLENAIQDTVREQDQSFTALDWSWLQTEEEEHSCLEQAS
# Procedure, shortened: (§1)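 Recombinant IKKα or IKKβ (37 nM) with 0.375 μM biotinylated IκB-α (Ser32) peptide and 40 μM ATP in 40 mM Tris-HCl pH 7.5, 20 mM MgCl2, 60 min at 30° C. Phospho-substrate captured on streptavidin and detected by anti-phospho-IκB-α plus europium anti-mouse IgG time-resolved fluorescence; apparent Ki via Cheng-Prusoff.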
# [2] = biological target: T2, Recombinant IKKα (Homo sapiens, UniProt O15111); assay: DELFIA IKKα kinase assay (apparent Ki, Cheng-Prusoff); assay type: biochemical
# T2 construct: purchased Millipore, Dundee, UK
# T2 sequence (O15111 1-745): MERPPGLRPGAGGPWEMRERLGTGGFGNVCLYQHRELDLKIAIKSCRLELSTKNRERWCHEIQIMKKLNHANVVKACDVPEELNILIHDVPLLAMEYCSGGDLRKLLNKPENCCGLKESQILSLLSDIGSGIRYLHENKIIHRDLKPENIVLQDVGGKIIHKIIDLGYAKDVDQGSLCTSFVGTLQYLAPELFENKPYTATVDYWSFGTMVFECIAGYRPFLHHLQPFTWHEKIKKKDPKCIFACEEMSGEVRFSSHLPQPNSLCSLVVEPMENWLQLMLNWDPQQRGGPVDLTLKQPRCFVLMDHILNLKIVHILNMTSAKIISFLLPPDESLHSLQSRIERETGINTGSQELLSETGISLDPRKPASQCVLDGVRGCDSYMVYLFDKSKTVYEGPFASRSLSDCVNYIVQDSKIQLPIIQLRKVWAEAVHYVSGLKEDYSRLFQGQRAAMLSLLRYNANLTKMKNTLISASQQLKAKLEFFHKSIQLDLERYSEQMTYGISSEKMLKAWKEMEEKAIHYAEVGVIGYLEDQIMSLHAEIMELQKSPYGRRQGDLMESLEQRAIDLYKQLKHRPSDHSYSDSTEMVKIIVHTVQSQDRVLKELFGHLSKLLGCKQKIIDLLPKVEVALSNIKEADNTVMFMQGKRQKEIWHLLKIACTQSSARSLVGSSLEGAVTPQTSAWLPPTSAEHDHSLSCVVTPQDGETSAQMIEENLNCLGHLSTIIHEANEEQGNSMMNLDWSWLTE
# Procedure, shortened: as §1
# [3] = non-italicised figure: DELFIA assay
# [4] = DELFIA assay (first line of an example)
SMILES,"Ki [1, 3] [µM]","Ki [2, 3] [µM]","Ki [1, 4] [µM]","Ki [2, 4] [µM]"
"CC(C)(C)C#Cc1cc(-c2ccnc(NC(=O)C3CCC3)c2)cc2c(N)n[nH]c12 [Example 172, N-(4-(3-Amino-7-(3,3-dimethylbut-1-yn-1-yl)-1H-indazol-5-yl)pyridin-2-yl)cyclobutanecarboxamide]",3.33,0.089,–,–
"CC(C)(C)C#Cc1cc(-c2ccnc(NC(=O)C3CCCC3)c2)cc2c(N)n[nH]c12 [Example 173, N-(4-(3-Amino-7-(3,3-dimethylbut-1-yn-1-yl)-1H-indazol-5-yl)pyridin-2-yl)cyclopentanecarboxamide]",23.8,0.298,–,–
"CC(C)(C)C#Cc1cc(-c2ccnc(NC(=O)CO)c2)cc2c(N)n[nH]c12 [Example 174, N-(4-(3-Amino-7-(3,3-dimethylbut-1-yn-1-yl)-1H-indazol-5-yl)pyridin-2-yl)-2-hydroxyacetamide]",0.611,0.02,–,–
"COC(=O)Nc1cc(-c2cc(C#CC3CC3)c3[nH]nc(N)c3c2)ccn1 [Example 179, Methyl (4-(3-amino-7-(cyclopropylethynyl)-1H-indazol-5yl)-pyridin-2-yl)carbamate]",0.962,0.01,–,–
"COC(=O)Nc1cc(-c2cc(C#CCN3CCOCC3)c3[nH]nc(N)c3c2)ccn1 [Example 183, Methyl (4-(3-amino-7-(3-morpholinoprop-1-yn-1-yl)-1H-indazol-5-yl)pyridin-2-yl)carbamate]",0.721,0.047,–,–
"CCNC(=O)Nc1cc(-c2cc(C#CC(C)(C)C)c3[nH]nc(N)c3c2)ccn1 [Example 187, 1-(4-(3-Amino-7-(3,3-dimethylbut-1-yn-1-yl)-1H-indazol-5-yl)pyridin-2-yl)-3-ethylurea]",8.1,0.438,–,–
"CC(C)(C)C#Cc1cc(-c2ccnc(NC(=O)Nc3ccccc3)c2)cc2c(N)n[nH]c12 [Example 189, 1-(4-(3-Amino-7-(3,3-dimethylbut-1-yn-1-yl)-1H-indazol-5-yl)pyridine-2-yl)-3-phenylurea]",–,–,19.3,0.113

# Further lines, results first:
"Ki [1, 3] [µM]","Ki [2, 3] [µM]","Ki [1, 4] [µM]","Ki [2, 4] [µM]",SMILES
1.11,0.024,–,–,"COCC(=O)Nc1cc(-c2cc(C#CC(C)(C)C)c3[nH]nc(N)c3c2)ccn1 [Example 175, N-(4-(3-Amino-7-(3,3-dimethylbut-1-yn-1-yl)-1H-indazol-5-yl)pyridin-2-yl)-2-methoxyacetamide]"
0.826,0.005,–,–,"COC(=O)Nc1cc(-c2cc(C#CC(C)(C)O)c3[nH]nc(N)c3c2)ccn1 [Example 180, Methyl (4-(3-amino-7-(3-hydroxy-3-methylbut-1-yn-1-yl)-1H-indazol-5-yl)pyridin-2-yl)carbamate]"
0.515,0.02,–,–,"COC(=O)Nc1cc(-c2cc(C#CC(C)(C)N)c3[nH]nc(N)c3c2)ccn1 [Example 181, Methyl (4-(3-amino-7-(3-amino-3-methylbut-1-yn-1-yl)-1H-indazol-5-yl)pyridin-2-yl)carbamate1]"
0.363,0.034,–,–,"COC(=O)Nc1cc(-c2cc(C#CC(C)(C)OC)c3[nH]nc(N)c3c2)ccn1 [Example 182, Methyl (4-(3-amino-7-(3-methoxy-3-methylbut-1-yn-1-yl)-1H-indazol-5-yl)pyridin-2-yl)carbamate]"
3.49,0.034,–,–,"CNC(=O)Nc1cc(-c2cc(C#CC(C)(C)C)c3[nH]nc(N)c3c2)ccn1 [Example 186, 1-(4-(3-Amino-7-(3,3-dimethylbut-1-yn-1-yl)-1H-indazol-5-yl)pyridin-2-yl)-3-methylurea]"
–,–,1.17,0.012,"COC(=O)Nc1cc(-c2cc(C#CC(C)(C)C)c3[nH]nc(N)c3c2)ccn1 [Example 190, Methyl (4-(3-amino-7-(3,3-dimethylbut-1-yn-1-yl)-1H-indazol-5-yl)pyridin-2-yl)carbamate]"
–,–,1.59,0.02,"CCOC(=O)Nc1cc(-c2cc(C#CC(C)(C)C)c3[nH]nc(N)c3c2)ccn1 [Example 191, Ethyl (4-(3-amino-7-(3,3-dimethylbut-1-yn-1-yl)-1H-indazol-5-yl)pyridin-2-yl)carbamate]"
